Assay results from patent US20120009152A1, “NITRIC OXIDE DONORS FOR TREATMENT OF DISEASE AND INJURY” (priority 2002, published 2012).

System: BrdU immunoreactive cells in dentate gyrus, SVZ and OB
Experiment: Cell proliferation (BrdU) in non-ischemic young adult rats
Format: in vivo, rat
Protocol: The effects of an NO donor administered to normal young adult rats on the induction of cell proliferation within three regions of brain, the dentate gyrus, the olfactory bulb (OB) and the subventricular zone (SVZ) were tested. […] Young male Wister rats (3-4 month old) received 4 consecutive). I.V bolus doses of DETA/NONOate (0.1 mg/kg each, every 15 min, and total dose of 0.4 mg/kg) on the first experimental day and DETA/NONOate (0.4 mg/kg) was administered (i.p) daily for an additional 6 consecutive days. Rats that received saline were used as a control group. Bromodeoxyuridine (BrdU) was used as mitotic labeling to measure cell proliferation. Animals received daily i.p injections of BrdU (50 mg/kg, Sigma) on the first experimental day and subsequently for 14 consecutive days. Rats were sacrificed at 14 and 42 days after the treatment. BrdU immunoreactive nuclei were counted on a computer monitor to improve visualization and in one focal plane to avoid over-sampling. Structures were sampled either by selecting predetermined areas on each section (OB) or by analyzing entire structures on each section (SVZ and dentate gyrus) (Zhang et al., 2001). All BrdU immunoreactive-positive nuclei in these areas are presented as the number of the BrdU immunoreactive cells/mm^2. Density for the selected several sections was averaged to obtain a mean density value for each animal (Zhang et al., 2001).

NCCN(CCN)/[N+]([O-])=N/O [DETANONOate, (Z)-1-[N-(2-aminoethyl)-N-(2-ammonioethyl)aminio]diazen-1-ium-1,2-diolate]
numbers of BrdU reactive cells within the dentate gyrus, SVZ and OB (non-ischemic young adult rats (3-4 month old), DETA/NONOate 0.4 mg/kg daily 7 days, 14 and 42 days, vs saline): Statistically significant increased | newly generated cells within the dentate gyrus exhibiting neuronal markers NeuN and MAP2 (non-ischemic young adult rats administered DETA/NONO-ate): More than 95%
